Test results from EP1138682A1, “Novel water soluble c-ring analogues of 20 (s)-camptothecin” (priority 1996, dated 1997).
Read-outs that look alike come from different tables or passages of the source.

Tests used:
[1] = system: NCI's 60 human tumor cell line; test: NCI 60 human tumor cell line assay (sulforhodamine B); assay type: cell-based; details: read-out: IC50 (the source's name)
Procedure: Each test compound was screened against a battery of 60 human cell lines obtained from eight organs. In a typical procedure, the cell suspensions that were diluted according to the particular cell type and the expected target cell density (5000-40,000 cells per well based on cell growth characteristics) were added into 96-well microtiter plates. Inoculates were allowed a preincubation period of 24h at 37°C. for stabilization. Dilutions at twice the intended test concentrations were added at time zero in 100-µl aliquots to microtiter plate wells. Usually test compounds were evaluated at five 10-fold dilutions. The highest well concentration used in the test is 10^-4M. The cells are then incubated in the presence of drug (the test compound) for further 48h in 5% CO2 atmosphere and 100% humidity. At the end of this time, the adherent cells are fixed to the plate by means of trichloroacetic acid, and after a number of washes, the cell layer is treated with the protein stain Sulforhodamine B. The optical density which is proportional to protein mass, is then read by automated spectrophotometric plate readers at a wavelength of 515 nm. Readings are transferred to a microcomputer and final reports are generated using especially developed software.

Human Serum Albumin = Human Serum Albumin (Homo sapiens, UniProt P02768); details: in the presence of HSA at 37°C; comparison in words; cited from earlier work
Chain of Human Serum Albumin (P02768 25-609): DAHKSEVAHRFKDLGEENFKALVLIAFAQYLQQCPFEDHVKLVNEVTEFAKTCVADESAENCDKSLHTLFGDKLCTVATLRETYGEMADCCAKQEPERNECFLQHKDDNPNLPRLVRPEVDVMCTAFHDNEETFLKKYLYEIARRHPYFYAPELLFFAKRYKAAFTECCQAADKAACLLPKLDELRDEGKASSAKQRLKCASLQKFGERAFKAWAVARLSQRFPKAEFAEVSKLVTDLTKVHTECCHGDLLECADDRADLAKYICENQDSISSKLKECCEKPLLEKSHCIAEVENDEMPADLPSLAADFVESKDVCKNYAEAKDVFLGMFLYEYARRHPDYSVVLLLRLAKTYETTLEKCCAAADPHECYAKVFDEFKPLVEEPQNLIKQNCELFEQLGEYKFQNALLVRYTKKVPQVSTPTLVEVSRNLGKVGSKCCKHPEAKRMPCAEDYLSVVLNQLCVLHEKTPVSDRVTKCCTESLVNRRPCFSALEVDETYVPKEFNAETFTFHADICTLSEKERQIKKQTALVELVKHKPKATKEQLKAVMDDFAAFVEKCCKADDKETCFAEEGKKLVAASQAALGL

[2] = mean value of GI50 (50% cell growth inhibition) over NCI's 60 human tumor cell lines, 48h incubation with drug

Work on “5-(2'-aminoethoxy)-7-ethylcamptothecin [Example 37]” yielded a GI50 [1, 2] of 18.6 µM.
Work on `CCOC1c2cc3c(O)cccc3nc2-c2cc3c(c(=O)n21)COC(=O)[C@]3(O)CC` (stereo partly shown) [Example 11, 5-Ethoxy-9-hydroxycamptothecin] yielded a GI50 [1, 2] of 6.68 µM.
Compound `CC[C@@]1(O)C(=O)OCc2c1cc1n(c2=O)C(OCC(F)(F)F)c2cc3cc(O)ccc3nc2-1` (stereo partly shown) [Example 27, 10-Hydroxy-5-trifluoroethoxycamptothecin] has a GI50 [1, 2] of 0.38 µM.
Work on `CC[C@@]1(O)C(=O)OCc2c1cc1n(c2=O)C(OCCOC)c2cc3ccccc3nc2-1` (stereo partly shown) [Example 43, 5-(2'-methoxyethoxy)camptothecin] yielded a GI50 [1, 2] of 2.23 µM.
In the case of `CCc1c2c(nc3ccc(O)cc13)-c1cc3c(c(=O)n1C2)COC(=O)[C@]3(O)CC` [SN-38, 7-ethyl-10-hydroxycamptothecin], the “percentage (%) of lactone form at equilibrium” value (Human Serum Albumin) is given as “higher percentage (%) of lactone form at equilibrium than 20(S) camptothecin of the formula 3 and 9-aminocamptothecin of the formula 6”.
“5-(2'-N-pyrrolidinoethoxy)-7-ethylcamptothecin [Example 39]” gave a GI50 [1, 2] of 18.6 µM.
`CC[C@@]1(O)C(=O)OCc2c1cc1n(c2=O)C(OCCO)c2cc3c([N+](=O)[O-])cccc3nc2-1` (stereo partly shown) [9-Nitro-5-(2'-hydroxyethoxy)camptothecin] showed a GI50 ([1]; Homo sapiens, 48 h) of 7.94 µM.
